Reference: patent US20230127046A1, “G9a INHIBITOR” (RIKEN, priority 2019, published 2023)
Like-named read-outs stand apart in the source and are kept apart here.

What was measured:
[1] = target: T1, recombinant human G9a protein (Homo sapiens, UniProt Q96KQ7); assay: G9a inhibitory activity test (ALPHA); type: biochemical
T1 construct: purchased BPS Bioscience Inc. #51001
T1 sequence (Q96KQ7 785-1210 limits assumed): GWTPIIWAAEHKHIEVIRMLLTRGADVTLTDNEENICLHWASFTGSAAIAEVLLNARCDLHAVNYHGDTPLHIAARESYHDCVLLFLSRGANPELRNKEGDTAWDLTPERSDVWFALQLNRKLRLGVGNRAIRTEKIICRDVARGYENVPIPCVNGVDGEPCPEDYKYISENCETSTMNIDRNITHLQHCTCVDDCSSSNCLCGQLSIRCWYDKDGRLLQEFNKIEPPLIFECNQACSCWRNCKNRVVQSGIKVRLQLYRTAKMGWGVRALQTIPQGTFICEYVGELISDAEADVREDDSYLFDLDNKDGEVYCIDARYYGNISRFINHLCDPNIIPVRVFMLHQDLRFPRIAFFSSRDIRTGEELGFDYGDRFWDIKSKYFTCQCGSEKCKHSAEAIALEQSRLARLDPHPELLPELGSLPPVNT
How it was run: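 Human G9a (0.05 to 0.1 nM) in Tris pH 9.0 buffer preincubated with compound 10 min, then biotinylated histone H3 (1-21) peptide and SAM mixed 1:1 from 500 nM and 150 μM solutions, 1 h at room temperature. H3K9me2 detected by AlphaLISA acceptor/streptavidin donor beads; IC50 from percent inhibition relative to no-compound and no-enzyme controls.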

[2] = system: intracellular histone H3K9 dimethylation level in human lung cancer cell line NCI-H460; assay: Histone H3K9 dimethylation inhibitory activity test (Western blotting); type: cell-based; settings: NCI-H460 cells, 72 hours
Method: The inhibitory activity of each compound against G9a was evaluated by adding the compound to a human lung cancer cell line NCI-H460, and detecting change in intracellular histone H3K9 dimethylation level by Western blotting. The NCI-H460 cells were cultured in a DMEM medium (FUJIFILM Wako Pure Chemical Corp., 044-29765) containing 10% fetal bovine serum and 4 mM glutamine. The cultured cells were washed with PBS and then detached with trypsin/EDTA, and the cell suspension was adjusted to 2.5×10^4 cells/mL. The cell suspension was inoculated at 500 μL/well to a 24-well microplate (Thermo Fisher Scientific, Inc., 142475) and cultured overnight under conditions of 37° C. and 5% CO2. On the next day, the test compound (solution in DMSO) was added at 0.5 µL/well and reacted for 72 hours under conditions of 37° C. and 5% CO2. DMSO was added at 0.5 μL/well to control wells (final DMSO concentration: 0.1%). The medium was removed, and the cells were washed with PBS. Then, a 2×SDS-PAGE sample buffer (100 mM Tris-HCl (pH 6.8), 4% sodium lauryl sulfate, 2% 2-mercaptoethanol, 20% glycerol, 0.005% bromophenol blue) was added at 50 μL/well to prepare a sample. The recovered sample was heated at 95 to 100° C. for 10 minutes, and protein was separated by polyacrylamide gel electrophoresis (SDS-PAGE). Subsequently, the separated protein was transferred to a polyvinylidene fluoride (PVDF) membrane by semi-dry blotting. The PVDF membrane was dipped in 3% skimmed milk (dissolved in PBS containing 0.05% Tween 20 (PBST)), blocked at room temperature for 30 to 60 minutes, then dipped in an anti-dimethylated histone H3K9 antibody (Abcam plc, ab1220) diluted 1000-fold with 3% skimmed milk, and reacted overnight at 4° C. On the next day, the PVDF membrane was washed three times with PBST, then dipped in a HRP (horseradish peroxidase)-labeled anti-mouse IgG antibody diluted 10000-fold with skimmed milk, and reacted at room temperature for 1 hour. The PVDF membrane was washed three times with PBST, then dipped in chemiluminescent substrate solution Immobilon Western Chemiluminescent HRP Substrate (Merck Millipore, WBKLS0500), incubated at room temperature for 5 minutes, and photographed with Lumino Image Analyzer (GE Healthcare Japan Corp., ImageQuant LAS4000).
Then, the antibody was stripped from the PVDF membrane using re-probe reagent EzReprobe (ATTO Corp., WSE-7240), and trimethylated histone H3K9 and histone H3 were detected by the same procedures as above. An anti-trimethyl histone H3K9 antibody (39161, diluted 1000-fold) from Active Motif, Inc. and an anti-histone H3 antibody (ab1791, diluted 2000-fold) from Abcam plc were used in the detection. The band of each protein was quantified from the taken image using image processing software ImageJ (NIH). The ratios of dimethylated histone H3K9 and trimethylated histone H3K9 to the histone H3 protein were calculated with the numeric value of a compound-unsupplemented sample defined as 100%. A compound concentration at which the ratio of dimethylated histone H3K9 was 50% was calculated as a 50% inhibition concentration (IC50 value) using data analysis software Origin (LightStone Corp.).

[3] = system: human lung cancer cell line NCI-H460; assay: Colony formation inhibition test; type: cell-based; settings: 288 h, NCI-H460 cells, culture for 12 days, read-out: Inhibitory activity (colony formation GI50)
Method: Each compound was evaluated for its colony formation inhibitory activity against a human lung cancer cell line NCI-H460. The NCI-H460 cells were cultured in a DMEM medium (FUJIFILM Wako Pure Chemical Corp., 044-29765) containing 10% fetal bovine serum and 4 mM glutamine. The cultured cells were washed with PBS, then detached with trypsin/EDTA, and adjusted to 2×10^3 cells/mL to prepare a cell suspension. The cell suspension was inoculated at 1 mL/well to a 12-well microplate (Corning Inc., 3513), and the test compound (DMSO solution) was added at 1 μL/well, followed by culture for 12 days under conditions of 37° C. and 5% CO2. DMSO was added at 1 μL/well to control wells with a final DMSO concentration set to 0.1%. The medium was discarded every day or every two days, and a fresh medium was added at 1 mL/well. The test compound or DMSO was added at 1 μL/well. The proportion of a colony of each well was measured using a high-speed cell imaging system (Tomy Digital Biology Co., Ltd., Celigo). The ratio of the colony in each compound-supplemented group was determined with the ratio of the colony formed in a test compound solution-unsupplemented well defined as 1. A compound concentration necessary for suppressing the rate of colony formation by 50% of the control (GI50) was calculated using data analysis software Origin (LightStone Crop.).

[4] = read-out: Inhibitory activity (G9a IC50)
[5] = biotinylated histone H3 peptide (1-21), SAM, read-out: Inhibitory activity (G9a IC50 value)

| SMILES | IC50 [1, 4] | IC50 [2] | GI50 [3] | IC50 [1, 5] |
| --- | --- | --- | --- | --- |
| COc1ccc(NC(=O)[C@H](CCC2CC2)NC(=O)c2ccc(Nc3cc(C)nc(C)c3)cc2)cn1 [Example 6-89] | < 50 nM | 50 to 500 nM | < 500 nM |  |
| CCCC[C@H](NC(=O)c1[nH]c2c(c1C)C(=O)CC(C)(C)C2)C(=O)Nc1ccc(OC2CCN(C)CC2)cc1OC [Example 6-30] | < 50 nM | < 50 nM | < 500 nM |  |
| COc1ccc(NC(=O)C(CCC2CC2)NC(=O)c2ccc(Nc3cc(C)nc(C)c3)cc2)cn1 (stereo not shown) [Example 6-62] | < 50 nM | 50 to 500 nM | < 500 nM |  |
| COc1ccc(NC(=O)[C@H](CCC2CC2)NC(=O)c2ccc(Nc3ccncc3)cc2)cn1 [Example 6-88] | < 50 nM | < 50 nM | < 500 nM |  |
| CCCC[C@H](NC(=O)c1[nH]c2c(c1C)C(=O)CC(C)(C)C2)c1nc2ccc(OC3CCNCC3)cc2[nH]1 [Example 35-1, (S)-3,6,6-trimethyl-4-oxo-N-(1-(6-(piperidin-4-yloxy)-1H-benzo[d]imidazol-2-yl)pentyl)-4,5,6,7-tetrahydro-1H-indole-2-carboxamide] | 50 to 200 nM | ≥ 500 nM | ≥ 1000 nM |  |
| COc1ccc(NC(=O)C(CCC2CC2)NC(=O)c2ccc(Nc3ccncc3)cc2)cn1 (stereo not shown) [Example 6-49] | < 50 nM | 50 to 500 nM | < 500 nM |  |
| CCCCNC(=O)C(CCC1CC1)NC(=O)c1[nH]c2c(c1C)C(=O)CC(C)(C)C2 (stereo not shown) [Example 1-82] |  | < 50 nM | ≥ 1000 nM | 50 to 200 nM |
| CCCC[C@H](NC(=O)c1[nH]c2c(c1C)C(=O)CC(C)(C)C2)C(=O)Nc1ccccc1 [Example 6-33] | ≥ 200 nM | 50 to 500 nM | ≥ 1000 nM |  |
| Cc1c(C(=O)NC(CCC2CC2)C(=O)N2CCc3ccccc32)[nH]c2c1C(=O)CC(C)(C)C2 (stereo not shown) [Example 1-81] |  | 50 to 500 nM | < 500 nM | 50 to 200 nM |
| CCCC[C@H](NC(=O)c1[nH]c2c(c1C)C(=O)CC(C)(C)C2)C(=O)N[C@@H](C)c1ccccc1 [Example 2-1, 3,6,6-trimethyl-4-oxo-N-((S)-1-oxo-1-(((S)-1-phenylethyl)amino)hexan-2-yl)-4,5,6,7-tetrahydro-1H-indole-2-carboxamide] | 50 to 200 nM | < 50 nM | 500 to 1000 nM |  |
| COc1ccc(NC(=O)C(CCC2CC2)NC(=O)c2ccc(CN3CCN(C)CC3)cc2)cn1 (stereo not shown) [Example 6-52] | ≥ 200 nM | 50 to 500 nM | 500 to 1000 nM |  |
| CCCC[C@H](NC(=O)c1[nH]c2c(c1C)C(=O)CC(C)(C)C2)C(=O)NCc1ccc(CN(C)C)cc1 [Example 6-34] | < 50 nM | < 50 nM | 500 to 1000 nM |  |
| CCCCC(NC(=O)c1ccc(N2CCN(C)CC2)cc1Cl)C(=O)Nc1ccc(OC2CCN(C)CC2)nc1 (stereo not shown) [Example 11-4] | ≥ 200 nM | ≥ 500 nM | ≥ 1000 nM |  |
| O=C(Cc1ccccc1)NC(CCC1CC1)C(=O)Nc1ccc(OC2COC2)nc1 (stereo not shown) [Example 1-87] |  | 50 to 500 nM | ≥ 1000 nM | 50 to 200 nM |
| Cc1c(C(=O)N[C@@H](CCC2CC2)C(=O)Nc2ccccc2)[nH]c2c1C(=O)CC(C)(C)C2 [Example 6-26] | < 50 nM | < 50 nM | < 500 nM |  |
| CCCCC(NC(=O)Cc1ccccc1)C(=O)Nc1ccc(OC2CCN(C)CC2)nc1 (stereo not shown) [Example 12-2] | ≥ 200 nM | 50 to 500 nM | ≥ 1000 nM |  |
| Cc1c(C(=O)NC(CCC2CC2)C(=O)Nc2ccc(C#N)cc2)[nH]c2c1C(=O)CC(C)(C)C2 (stereo not shown) [Example 1-79] |  | < 50 nM | < 500 nM | 50 to 200 nM |
| CCCC[C@H](NC(=O)c1[nH]c2c(c1C)C(=O)CC(C)(C)C2)c1nc2ccc(OCC3CCNCC3)cc2[nH]1 [Example 35-2] | < 50 nM | ≥ 500 nM | ≥ 1000 nM |  |
| Cc1ccc(NC(=O)[C@H](CCC2CC2)NC(=O)c2[nH]c3c(c2C)C(=O)CC(C)(C)C3)cn1 [Example 6-10] | < 50 nM | 50 to 500 nM | 500 to 1000 nM |  |
| CCCC[C@H](NC(=O)c1[nH]c2c(c1C)C(=O)CC(C)(C)C2)C(=O)NCc1ccc(N2CCN(C)CC2)cc1 [Example 22-2] | 50 to 200 nM | < 50 nM | 500 to 1000 nM |  |
| Cc1c(C(=O)NC(CCC2CC2)C(=O)NC2CCN(C)CC2)[nH]c2c1C(=O)CC(C)(C)C2 (stereo not shown) [Example 1-68] |  | 50 to 500 nM | ≥ 1000 nM | ≥ 200 nM |
| Cc1ccc(NC(=O)C(CCC2CC2)NC(=O)c2[nH]c3c(c2C)C(=O)CC(C)(C)C3)cn1 (stereo not shown) [Example 1-80] |  | 50 to 500 nM | 500 to 1000 nM | ≥ 200 nM |
| Cc1c(C(=O)NC(CCC2CC2)C(=O)Nc2ccccc2)[nH]c2c1C(=O)CC(C)(C)C2 (stereo not shown) [Example 6-17] | 50 to 200 nM | < 50 nM | 500 to 1000 nM |  |
| CCCCC(NC(=O)c1[nH]c2c(c1C)C(=O)CC(C)(C)C2)C(=O)Nc1ccc(C(N)=O)cc1 (stereo not shown) [Example 20-1, N-[1-(4-carbamoylanilino)-1-oxohexan-2-yl]-3,6,6-trimethyl-4-oxo-5,7-dihydro-1H-indole-2-carboxamide] | ≥ 200 nM |  |  |  |
| COc1ccc(NC(=O)C(CCC2CC2)NC(=O)c2sc(-c3cccnc3)nc2C(F)(F)F)cn1 (stereo not shown) [Example 6-60] | ≥ 200 nM |  |  |  |
| CCCCC(NC(=O)c1[nH]c2c(c1C)C(=O)CC(C)(C)C2)C(=O)NCc1cccc(N2CCN(C)CC2)c1 (stereo not shown) [Example 1-92] |  |  |  | ≥ 200 nM |
| CCCCC(NC(=O)c1[nH]c2c(c1C)C(=O)CC(C)(C)C2)C(=O)NC1(c2ccccc2)CC1 (stereo not shown) [Example 1-53] |  |  |  | 50 to 200 nM |
| Cc1c(C(=O)N[C@@H](CCC2CC2)C(=O)N(C)[C@@H](C)c2ccccc2)[nH]c2c1C(=O)CC(C)(C)C2 [Example 13-5] | ≥ 200 nM |  |  |  |
| COc1ccc(NC(=O)C(CCC2CC2)NC(=O)c2ccc(CCN(C)C)cc2)cn1 (stereo not shown) [Example 6-73] | ≥ 200 nM |  |  |  |
| Cc1c(C(=O)NC(CCC2CC2)C(=O)N(C)Cc2ccccc2)[nH]c2c1C(=O)CC(C)(C)C2 (stereo not shown) [Example 6-19] | ≥ 200 nM |  |  |  |
